Reference: patent US6054435A, “6-O-substituted macrolides having antibacterial activity” (priority 1999, dated 2000)
≈ marks a conversion by molar mass, not a printed value.

Legend:
Test in all cases: in vitro antibacterial activity (MIC), agar dilution
Type in all cases: cell-based
[1] = system: Nocardia Asteroides ATCC9970; conditions: organism code VV; BHI agar, 35-37° C., 20 to 24 hours; unit assumed
Summary of the method: (§1)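 Steps: dilute compound serially into BHI agar (twelve plates); spot inocula diluted 1:100, or 1:10 for slow-growing Streptococcus; incubate; inspect visually. MIC recorded as lowest level with no growth, slight haze or sparse isolated colonies.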

Candida albicans CCH 442 = conditions: organism code TT; BHI agar, 35-37° C., 20 to 24 hours; unit assumed
Summary of the method: as §1

[2] = system: Streptococcus Pneumonia GYR 1171; conditions: organism code YY; BHI agar, 35-37° C., 20 to 24 hours; unit assumed
Summary of the method: as §1

[3] = system: Staphylococcus aureus A5177; conditions: organism code BB; BHI agar, 35-37° C., 20 to 24 hours; unit assumed
Summary of the method: as §1

[4] = system: Staphylococcus epidermidis 3519; conditions: organism code HH; BHI agar, 35-37° C., 20 to 24 hours; unit assumed
Summary of the method: as §1

[5] = system: Micrococcus luteus ATCC 9341; conditions: organism code OO; BHI agar, 35-37° C., 20 to 24 hours; unit assumed
Summary of the method: (§2)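 Plates of BHI agar were prepared with twelve aqueous dilutions of compound, then inoculated at 1:100 dilution, or 1:10 for slow growers like Streptococcus. After incubation they were inspected, and the lowest concentration yielding no growth, slight haze or sparse colonies was recorded as MIC.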

[6] = system: Haemophilis Influenzae DILL AMP R; conditions: organism code WW; BHI agar, 35-37° C., 20 to 24 hours; unit assumed
Summary of the method: as §1

[7] = system: Streptococcus pyogenes 930; conditions: organism code MM; BHI agar, 35-37° C., 20 to 24 hours; unit assumed
Summary of the method: as §1

[8] = system: Staphylococcus aureus CMX 642A; conditions: organism code DD; BHI agar, 35-37° C., 20 to 24 hours; unit assumed
Summary of the method: as §1

[9] = system: Staphylococcus aureus NCTC10649M; conditions: organism code EE; BHI agar, 35-37° C., 20 to 24 hours; unit assumed
Summary of the method: as §1

Escherichia coli DC-2 = conditions: organism code SS; BHI agar, 35-37° C., 20 to 24 hours; unit assumed
Summary of the method: as §1

[10] = system: Staphylococcus aureus A-5278; conditions: organism code CC; BHI agar, 35-37° C., 20 to 24 hours; unit assumed
Summary of the method: as §1

[11] = system: Streptococcus Pneumonia 5979; conditions: organism code ZZ; BHI agar, 35-37° C., 20 to 24 hours; unit assumed
Summary of the method: as §1

[12] = system: Streptococcus Pneumonia 5649; conditions: organism code ZZA; BHI agar, 35-37° C., 20 to 24 hours; unit assumed
Summary of the method: as §1

[13] = system: Streptococcus pyogenes EES61; conditions: organism code LL; BHI agar, 35-37° C., 20 to 24 hours; unit assumed
Summary of the method: as §1

[14] = system: Staphylococcus aureus ATCC 6538P; conditions: organism code AA; BHI agar, 35-37° C., 20 to 24 hours; unit assumed
Summary of the method: as §1

[15] = system: Staphylococcus aureus 1775; conditions: organism code GG; BHI agar, 35-37° C., 20 to 24 hours; unit assumed
Summary of the method: as §1

[16] = system: Streptococcus pyogenes PIU 2548; conditions: organism code NN; BHI agar, 35-37° C., 20 to 24 hours; unit assumed
Summary of the method: as §1

[17] = system: Enterococcus faecium ATCC 8043; conditions: organism code II; BHI agar, 35-37° C., 20 to 24 hours; unit assumed
Summary of the method: as §1

[18] = system: Mycobacterium smegmatis ATCC 114; conditions: organism code UU; BHI agar, 35-37° C., 20 to 24 hours; unit assumed
Summary of the method: as §1

[19] = system: Staphylococcus aureus CMX 553; conditions: organism code FF; BHI agar, 35-37° C., 20 to 24 hours; unit assumed
Summary of the method: as §1

Escherichia coli JUHL = conditions: organism code QQ; BHI agar, 35-37° C., 20 to 24 hours; unit assumed
Summary of the method: as §1

Escherichia coli SS = conditions: organism code RR; BHI agar, 35-37° C., 20 to 24 hours; unit assumed
Summary of the method: as §1

[20] = system: Streptococcus agalactiae CMX 508; conditions: organism code KK; BHI agar, 35-37° C., 20 to 24 hours; unit assumed
Summary of the method: as §1

[21] = system: Streptococcus Pneumonia ATCC6303; conditions: organism code XX; BHI agar, 35-37° C., 20 to 24 hours; unit assumed
Summary of the method: as §1

[22] = system: Micrococcus luteus ATCC 4698; conditions: organism code PP; BHI agar, 35-37° C., 20 to 24 hours; unit assumed
Summary of the method: as §2

[23] = system: Streptococcus bovis A-5169; conditions: organism code JJ; BHI agar, 35-37° C., 20 to 24 hours; unit assumed
Summary of the method: as §1

Row | SMILES | MIC [1] [µg/mL] | MIC (Candida albicans CCH 442) [µg/mL] | MIC [2] [µg/mL] | MIC [3] [µg/mL] | MIC [4] [µg/mL] | MIC [5] [µg/mL] | MIC [6] [µg/mL] | MIC [7] [µg/mL] | MIC [8] [µg/mL] | MIC [9] [µg/mL] | MIC (Escherichia coli DC-2) [µg/mL] | MIC [10] [µg/mL] | MIC [11] [µg/mL] | MIC [12] [µg/mL] | MIC [13] [µg/mL] | MIC [14] [µg/mL] | MIC [15] [µg/mL] | MIC [16] [µg/mL] | MIC [17] [µg/mL] | MIC [18] [µg/mL] | further results
1 | CC[C@H]1OC(=O)[C@H](C)C(=O)[C@H](C)[C@@H](O[C@@H]2O[C@H](C)C[C@H](N(C)C)[C@H]2O)[C@](C)(OCC#Cc2ccc(-c3ccco3)s2)C[C@@H](C)C(=O)[C@H](C)[C@H]2NC(=O)O[C@@]21C [Example 23] | 0.02 (≈ 0.0255 µM) | > 100 | 0.03 (≈ 0.0382 µM) | 0.05 (≈ 0.0637 µM) | 0.05 (≈ 0.0637 µM) | 0.01 (≈ 0.0127 µM) | 2 (≈ 2.55 µM) | 6.2 (≈ 7.9 µM) | 0.05 (≈ 0.0637 µM) | 0.05 (≈ 0.0637 µM) | 50 (≈ 63.7 µM) | > 100 | 8 (≈ 10.2 µM) | 0.25 (≈ 0.318 µM) | 0.1 (≈ 0.127 µM) | 0.05 (≈ 0.0637 µM) | > 100 | 0.1 (≈ 0.127 µM) | 0.02 (≈ 0.0255 µM) | 0.78 (≈ 0.994 µM) | MIC [19]: 0.05 µg/mL (≈ 0.0637 µM); MIC (Escherichia coli JUHL): 50 µg/mL (≈ 63.7 µM); MIC (Escherichia coli SS): 0.39 µg/mL (≈ 0.497 µM); MIC [20]: ≤ 0.005 µg/mL; MIC [21]: 0.03 µg/mL (≈ 0.0382 µM); MIC [22]: 0.05 µg/mL (≈ 0.0637 µM); MIC [23]: 0.01 µg/mL (≈ 0.0127 µM)
2 | CC[C@H]1OC(=O)[C@H](C)C(=O)[C@H](C)[C@@H](O[C@@H]2O[C@H](C)C[C@H](N(C)C)[C@H]2O)[C@](C)(OCC#Cc2ccc(-c3ccc(C=O)o3)cc2)C[C@@H](C)C(=O)[C@H](C)[C@H]2NC(=O)O[C@@]21C [Example 24] | 0.1 (≈ 0.124 µM) | > 100 | 0.03 (≈ 0.0372 µM) | 0.39 (≈ 0.483 µM) | 0.39 (≈ 0.483 µM) | 0.02 (≈ 0.0248 µM) | 8 (≈ 9.91 µM) | 25 (≈ 31 µM) | 0.39 (≈ 0.483 µM) | 0.39 (≈ 0.483 µM) | > 100 | > 100 | 2 (≈ 2.48 µM) | 0.25 (≈ 0.31 µM) | 0.1 (≈ 0.124 µM) | 0.39 (≈ 0.483 µM) | > 100 | 0.78 (≈ 0.967 µM) | 0.2 (≈ 0.248 µM) | 3.1 (≈ 3.84 µM) | MIC [19]: 0.39 µg/mL (≈ 0.483 µM); MIC (Escherichia coli JUHL): > 100 µg/mL; MIC (Escherichia coli SS): 1.56 µg/mL (≈ 1.93 µM); MIC [20]: 0.1 µg/mL (≈ 0.124 µM); MIC [21]: 0.03 µg/mL (≈ 0.0372 µM); MIC [22]: 0.39 µg/mL (≈ 0.483 µM); MIC [23]: 0.1 µg/mL (≈ 0.124 µM)
3 | CC[C@H]1OC(=O)[C@H](C)C(=O)[C@H](C)[C@@H](O[C@@H]2O[C@H](C)C[C@H](N(C)C)[C@H]2O)[C@](C)(OCC#Cc2ccc(-c3cccs3)s2)C[C@@H](C)C(=O)[C@H](C)[C@H]2NC(=O)O[C@@]21C [Example 25] | 0.39 (≈ 0.487 µM) | 12.5 (≈ 15.6 µM) | ≤ 0.004 | 0.1 (≈ 0.125 µM) | 0.1 (≈ 0.125 µM) | 0.05 (≈ 0.0624 µM) | 2 (≈ 2.5 µM) | 1.56 (≈ 1.95 µM) | 0.2 (≈ 0.25 µM) | 0.2 (≈ 0.25 µM) | > 100 | 25 (≈ 31.2 µM) | 0.25 (≈ 0.312 µM) | 0.125 (≈ 0.156 µM) | 0.005 (≈ 0.00624 µM) | 0.2 (≈ 0.25 µM) | 25 (≈ 31.2 µM) | 0.2 (≈ 0.25 µM) | 0.1 (≈ 0.125 µM) | 0.39 (≈ 0.487 µM) | MIC [19]: 0.1 µg/mL (≈ 0.125 µM); MIC (Escherichia coli JUHL): 100 µg/mL (≈ 125 µM); MIC (Escherichia coli SS): 0.2 µg/mL (≈ 0.25 µM); MIC [20]: 0.1 µg/mL (≈ 0.125 µM); MIC [21]: ≤ 0.004 µg/mL; MIC [22]: 0.2 µg/mL (≈ 0.25 µM); MIC [23]: 0.1 µg/mL (≈ 0.125 µM)
4 | CC[C@H]1OC(=O)[C@H](C)C(=O)[C@H](C)[C@@H](O[C@@H]2O[C@H](C)C[C@H](N(C)C)[C@H]2O)[C@](C)(OCC#Cc2ccc(-c3ccc(Cl)s3)s2)C[C@@H](C)C(=O)[C@H](C)[C@H]2NC(=O)O[C@@]21C [Example 26] | 0.1 (≈ 0.12 µM) | > 100 | 0.03 (≈ 0.0359 µM) | 0.2 (≈ 0.239 µM) | 0.2 (≈ 0.239 µM) | 0.05 (≈ 0.0598 µM) | 4 (≈ 4.79 µM) | 3.1 (≈ 3.71 µM) | 0.2 (≈ 0.239 µM) | 0.2 (≈ 0.239 µM) | > 100 | 12.5 (≈ 15 µM) | 0.5 (≈ 0.598 µM) | 0.25 (≈ 0.299 µM) | 0.02 (≈ 0.0239 µM) | 0.2 (≈ 0.239 µM) | 12.5 (≈ 15 µM) | 0.2 (≈ 0.239 µM) | 0.1 (≈ 0.12 µM) | 0.39 (≈ 0.467 µM) | MIC [19]: 0.2 µg/mL (≈ 0.239 µM); MIC (Escherichia coli JUHL): > 100 µg/mL; MIC (Escherichia coli SS): 1.56 µg/mL (≈ 1.87 µM); MIC [20]: ≤ 0.005 µg/mL; MIC [21]: 0.03 µg/mL (≈ 0.0359 µM); MIC [22]: 0.2 µg/mL (≈ 0.239 µM); MIC [23]: 0.05 µg/mL (≈ 0.0598 µM)
5 | CC[C@H]1OC(=O)[C@H](C)C(=O)[C@H](C)[C@@H](O[C@@H]2O[C@H](C)C[C@H](N(C)C)[C@H]2O)[C@](C)(OCC#Cc2ccc(-c3nccs3)s2)C[C@@H](C)C(=O)[C@H](C)[C@H]2NC(=O)O[C@@]21C [Example 28] | 0.05 (≈ 0.0623 µM) | > 100 | 0.03 (≈ 0.0374 µM) | 0.05 (≈ 0.0623 µM) | 0.05 (≈ 0.0623 µM) | 0.01 (≈ 0.0125 µM) | 2 (≈ 2.49 µM) | 12.5 (≈ 15.6 µM) | 0.05 (≈ 0.0623 µM) | 0.1 (≈ 0.125 µM) | 12.5 (≈ 15.6 µM) | > 100 | 1 (≈ 1.25 µM) | 0.25 (≈ 0.312 µM) | ≤ 0.005 | 0.05 (≈ 0.0623 µM) | > 100 | 0.1 (≈ 0.125 µM) | 0.05 (≈ 0.0623 µM) | 0.2 (≈ 0.249 µM) | MIC [19]: 0.05 µg/mL (≈ 0.0623 µM); MIC (Escherichia coli JUHL): 25 µg/mL (≈ 31.2 µM); MIC (Escherichia coli SS): 0.1 µg/mL (≈ 0.125 µM); MIC [20]: 0.02 µg/mL (≈ 0.0249 µM); MIC [21]: 0.03 µg/mL (≈ 0.0374 µM); MIC [22]: 0.1 µg/mL (≈ 0.125 µM); MIC [23]: ≤ 0.005 µg/mL
